Measured values taken from PubChem BioAssay AID248 (DTP/NCI, 2004).
Where “and” joins values, the source holds several entries; their conditions need not be identical. Identical values can stand only once. Toxic doses and inconclusive results are not listed. Square brackets hold non-standard residues; d marks the D form. Peptide text beside a SMILES is read from it. * marks the point of attachment. ξ: configuration not given here. Pentanoyl = CCCCC(=O)*; ξP = O=C(O)C1CCCN1; OtBu = CC(C)(C)O*

System: L1210 leukemia ip in BDF1 mice, survival T/C
Experiment: NCI In Vivo Anticancer Drug Screen. Data for tumor model L1210 Leukemia (intraperitoneal) in B6D2F1 (BDF1) mice
Conditions: endpoint: mean survival time, higher = longer survival
In short: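 Antitumor effect is assessed in tumor-bearing animals. Survival in the compound arm is compared with a vehicle-dosed control arm and expressed as their quotient.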

[1] = dose: 100.0 mg/kg/injection, schedule: Q01DX009 (ip), vehicle: saline with Tween-80
[2] = dose: 100.0 mg/kg/injection, schedule: Q04DX003 (ip), vehicle: saline with Tween-80
[3] = dose: 15.0 mg/kg/injection, schedule: Q01DX Z (ip), vehicle: saline

For CCCCCCCCCCCCCCCCc1ccc(O)cc1O, the T/C (dose: 12.5 mg/kg/injection, schedule: Q04DX003 (ip), vehicle: Klucel (hydroxypropylcellulose) (HPC)) was 103 % of control, the T/C (dose: 25.0 mg/kg/injection, schedule: Q01DX009 (ip), vehicle: saline with Tween-80) was 100 % of control and the T/C (dose: 25.0 mg/kg/injection, schedule: Q04DX003 (ip), vehicle: Klucel (hydroxypropylcellulose) (HPC)) was 95 % of control. The T/C (dose: 50.0 mg/kg/injection, schedule: Q01DX009 (ip), vehicle: saline with Tween-80) was 105 % of control, the T/C (dose: 50.0 mg/kg/injection, schedule: Q04DX003 (ip), vehicle: Klucel (hydroxypropylcellulose) (HPC)) was 95 % of control and the T/C [1] was 95 % of control. For the same compound, the T/C [2] was 94 % of control.
With CCCCC(=O)NCC(=O)N1CCCC1C(=O)OC(C)(C)C (stereo unspecified) (Pentanoyl-Gly-[ξP]-OtBu) the T/C (dose: 100.0 mg/kg/injection, schedule: Q04DX002 (ip), vehicle: Klucel (hydroxypropylcellulose) (HPC)) was 105 % of control, the T/C (dose: 200.0 mg/kg/injection, schedule: Q04DX002 (ip), vehicle: Klucel (hydroxypropylcellulose) (HPC)) was 101 % of control and the T/C (dose: 400.0 mg/kg/injection, schedule: Q04DX002 (ip), vehicle: Klucel (hydroxypropylcellulose) (HPC)) was 101 % of control.
In the case of COc1cc(C(=O)Nc2ccc(C3=NCCN3)cc2)ccc1C(=O)Nc1ccc(C2=NCCN2)cc1, the T/C [3] is reported as 159 % of control and 172 % of control, the T/C (dose: 30.0 mg/kg/injection, schedule: Q01DX Z (ip), vehicle: saline) is reported as 212 % of control and the T/C (dose: 60.0 mg/kg/injection, schedule: Q01DX010 (oral), vehicle: saline) is reported as 101 % of control. For the same compound, the T/C (dose: 60.0 mg/kg/injection, schedule: Q01DX Z (ip), vehicle: saline) was 188 % of control, the T/C (dose: 120.0 mg/kg/injection, schedule: Q01DX010 (oral), vehicle: saline) was 104 % of control and the T/C (dose: 240.0 mg/kg/injection, schedule: Q01DX010 (oral), vehicle: saline) was 98 % of control.
c1ccc(-c2cnc[nH]2)cc1 was tested, and the T/C (dose: 50.0 mg/kg/injection, schedule: Q01DX001 (ip), vehicle: carboxymethylcellulose (CMC)) was 100 % of control, the T/C (dose: 100.0 mg/kg/injection, schedule: Q01DX001 (ip), vehicle: carboxymethylcellulose (CMC)) was 109 % of control and the T/C (dose: 200.0 mg/kg/injection, schedule: Q01DX001 (ip), vehicle: carboxymethylcellulose (CMC)) was 117 % of control.
For CCCCCCCCCCCCOP(=S)(S)OCCCCCCCCCCCC.[Cd], the T/C (dose: 1.56 mg/kg/injection, schedule: Q01DX009 (ip), vehicle: saline with Tween-80) was 102 % of control, the T/C (dose: 3.13 mg/kg/injection, schedule: Q01DX009 (ip), vehicle: saline with Tween-80) was 97 % of control and the T/C (dose: 6.25 mg/kg/injection, schedule: Q01DX009 (ip), vehicle: saline with Tween-80) was 96 % of control. For the same compound, the T/C (dose: 50.0 mg/kg/injection, schedule: Q04DX002 (ip), vehicle: saline with Tween-80) was 94 % of control and the T/C (dose: 100.0 mg/kg/injection, schedule: Q04DX002 (ip), vehicle: saline with Tween-80) was 86 % of control and 91 % of control.
With CCC(CC)C(=O)NC(=O)NC(C)=O the T/C (dose: 75.0 mg/kg/injection, schedule: Q01DX001 (ip), vehicle: Klucel (hydroxypropylcellulose) (HPC)) was 91 % of control, the T/C (dose: 150.0 mg/kg/injection, schedule: Q01DX001 (ip), vehicle: Klucel (hydroxypropylcellulose) (HPC)) was 102 % of control and the T/C (dose: 300.0 mg/kg/injection, schedule: Q01DX001 (ip), vehicle: Klucel (hydroxypropylcellulose) (HPC)) was 88 % of control.
For O=C(Nc1ccc(NC2=NCCN2)cc1)c1cc(C(=O)Nc2ccc(NC3=NCCN3)cc2)cc([N+](=O)[O-])c1, the T/C (dose: 1.87 mg/kg/injection, schedule: Q01DX Z (ip), vehicle: saline) was 113 % of control, the T/C (dose: 3.75 mg/kg/injection, schedule: Q01DX Z (ip), vehicle: saline) was 109 % of control and the T/C (dose: 7.5 mg/kg/injection, schedule: Q01DX Z (ip), vehicle: saline) was 115 % of control. The T/C (dose: 15.0 mg/kg/injection, schedule: Q01DX Z (ip), vehicle: methylcellulose (MC)) was 94 % of control and the T/C [3] was 105 % of control.
With CN(C)C(=O)NCc1ccccc1 the T/C (dose: 100.0 mg/kg/injection, schedule: Q04DX003 (ip), vehicle: Klucel (hydroxypropylcellulose) (HPC)) was 90 % of control, the T/C (dose: 200.0 mg/kg/injection, schedule: Q04DX003 (ip), vehicle: Klucel (hydroxypropylcellulose) (HPC)) was 92 % of control and the T/C (dose: 400.0 mg/kg/injection, schedule: Q04DX003 (ip), vehicle: Klucel (hydroxypropylcellulose) (HPC)) was 98 % of control.
In the case of CC(=O)C(C)(CCC(=O)NC(C)(C)C)CCC(=O)NC(C)(C)C, the T/C [1] is reported as 94 % of control, the T/C [2] is reported as 95 % of control and the T/C (dose: 200.0 mg/kg/injection, schedule: Q01DX009 (ip), vehicle: saline with Tween-80) is reported as 100 % of control. For the same compound, the T/C (dose: 200.0 mg/kg/injection, schedule: Q04DX003 (ip), vehicle: saline with Tween-80) was 95 % of control, the T/C (dose: 400.0 mg/kg/injection, schedule: Q01DX009 (ip), vehicle: saline with Tween-80) was 93 % of control and the T/C (dose: 400.0 mg/kg/injection, schedule: Q04DX003 (ip), vehicle: saline with Tween-80) was 93 % of control.
